In patent US20120065226A1, “SALTS OF […] 10-CAMPH[…]” (ADAMED SP Z O.O., priority 2009, published 2012):
Structures can show the parent of a compound that is named as a salt.

What was measured:
[1] = Recrystallization from various organic solvents, crystalline form by XRPD; format: physicochemical; conditions: XRPD analysis
From the text: The process for the preparation of novel tiotropium salts with 10-camphorsulphonic acid and with single optical isomers thereof as well as monohydrates of the salts according to the present invention allows to obtain the desired product as stable, non-hygroscopic crystals, with high yield and with purity acceptable for being used in pharmaceutical compositions. Stability of crystalline anhydrous tiotropium salts with 1R-(−)-10-camphorsulphonic and 1S-(+)-10-camphorsulphonic acids was confirmed experimentally. […] Therefore, no transformation or modification of a crystalline salt takes place.
XRPD patterns were obtained using Rigaku MiniFlex X-ray diffractometer, with Cu Kα radiation, filter Kβ. Lamps parameters were set at 30 kV and 15 mA. Divergence and scattering slits were set at 4.2°, and a receiving slit was set at 0.3 mm. Deflection of rays was detected with scintillation detector NaI. The θ/2θ continuous scan at 1°/min with a step of 0.02° from 2.0 to 40° 2θ was used. The samples were prepared by pressing the solid in a quartz holder.

[2] = Hygroscopicity of the crystals; format: physicochemical

SMILES	crystalline form after recrystallization [1]	hygroscopicity [2]
C[N+]1(C)C2CC(OC(=O)C(O)(c3cccs3)c3cccs3)CC1C1OC12 (stereo not drawn) [Tiotropium salt with 1R-(−)-10-camphorsul-phonic acid, anhyd] [Tiotropium salt with 1R-(−)-10-camphorsulphonic acid (anhydrous)]	initial crystalline form	
CC1(C)C2CC[C@@]1(CS(=O)(=O)[O-])C(=O)C2.C[N+]1(C)C2CC(OC(=O)C(O)(c3cccs3)c3cccs3)CC1C1OC12.O (stereo not drawn) [Crystalline monohydrate of tiotropium salt with 1S-(+)-10-camphorsulphonic acid]		non-hygroscopic
CC1(C)C2CC[C@]1(CS(=O)(=O)[O-])C(=O)C2.C[N+]1(C)C2CC(OC(=O)C(O)(c3cccs3)c3cccs3)CC1C1OC12.O (stereo not drawn) [Crystalline monohydrate of tiotropium salt with 1R-(−)-10-camphorsulphonic acid]		non-hygroscopic
C[N+]1(C)C2CC(OC(=O)C(O)(c3cccs3)c3cccs3)CC1C1OC12 (stereo not drawn) [Tiotropium salt with 1S-(+)-10-camphorsul-phonic acid, anhyd] [Tiotropium salt with 1S-(+)-10-camphorsulphonic acid (anhydrous)]	initial crystalline form	
